“And” between values parts separate entries of the source, which are not always exact repeats. Equal values may be shown once.
What was measured:
[1] = system: bloodstream trypomastigotes form Y strain of T. cruzi; experiment: In vitro trypanocidal assay; type: cell-based; conditions: Trypanosoma cruzi, read-out: IC50/24 h (concentration that produces 50% lysis of the parasites), trypomastigote forms, 37 °C
Experimental: In vitro trypanocidal assay - To accomplishment of the experiments were used bloodstream trypomastigotes form Y strain of T. cruzi, obtained at the peak of the parasitemia (7th day after infection) of infected Swiss albino mice.[34] The trypomastigotes underwent a differential centrifugation process for the separation of erythrocytes, leukocytes and concentration of the parasites in the plasma, and the purified parasites were resuspended in RPMI medium and cell concentration was determined by counting in the Neubauer chamber. Stock solution of each compound was prepared in dimethyl sulfoxide (DMSO), and the assays were performed in Dulbecco’s modified Eagle medium in 96-well plates. In the first well was placed twice the highest desired concentration of each compound, in a final volume of 200 μL, in the following wells were added 100 μL of medium supplemented with 10% foetal bovine serum (FBS) and 2% L-glutamine. Subsequently, 100 μL of parasite suspension (10^6 trypomastigotes) were added, resulting in a final concentration of 5 x 10^6 parasites/mL, incubated for 24 h at 37 °C under a 5% CO2 atmosphere and quantified in Neubauer’s chamber by light microscopy. […] At least four independent experiments were performed and the mean and standard deviation were calculated. Benznidazole (1) was used as a reference drug. The experiments were performed in accordance with the guidelines established by the Oswaldo Cruz Foundation Committee of Ethics for the Use of Animals (L 038/2018).

Chagas disease = conditions: cited from earlier work
[2] = system: whole human blood cells (WHBC); experiment: Cytotoxicity assay (FDA/EtBr) in whole human blood cells; conditions: for percentage decrease in cell viability: 2 h, 37 °C; for lethality variation range: 2 h at 37 °C, compared to solvent-control
Experimental: In vitro treatment and cytotoxicity assay in whole human blood cells (WHBC) - Heparinised WHBC was obtained by venipuncture from healthy young non-smoking volunteers with no known recent exposures to genotoxic chemicals or radiation immediately before the assays. […] The cytotoxicity assay aims to establish the degree of cell viability after treatment with nitroimidazoles to define the ranges concentrations to be tested in the in vitro CA. Cell viability was determined at the end of the treatment using the fluorescein diacetate (FDA)/ethidium bromide (EtBr)-assay, in which viable cells are labelled in green, while dead ones display orange-stained nuclei. WHBC (50 μL) was mixed with an equal volume of the freshly prepared staining solution consisting of 30 μg/mL FDA plus 8 μg/mL EtBr in phosphate-buffered saline (PBS). Samples (50 μL) were spread on a microscope slide and covered with a coverslip and observed using a fluorescence microscope. Two hundred cells were analysed for each treatment.[32] The research project involving the use of human blood samples was approved by the Committee on Ethics in Research with Human Beings - CEP Fiocruz/IOC (CAAE: 41684815.3.0000.5248) under the consolidated opinion of CEP No. 1066061.

[3] = system: whole human blood cells (WHBC); experiment: In vitro alkaline comet assay (CA) in whole human blood cells; type: cell-based
Experimental: Methyl methane-sulfonate (MMS) (160 μM) (Sigma-Aldrich) was used as a positive control. […] Slides were prepared, lysed (pH 10; 4-5 °C) and processed as described earlier,[32] using a time of alkali denaturation of 20 min and electrophoresis (0.86 V/cm and 300 mA) of 20 min at a pH > 13. […] The DNA damage was expressed as percentage of cells into four classes and as arbitrary units (AU) according to the formula: AU = (0 […] 3), where n = the number of cells analysed in each class. The total DNA damage score in AU (TAU) for 200 cells can range from 0 TAU (200 undamaged cells) to 600 TAU (all cells maximally damaged).

[4] = system: whole human blood cells (WHBC); experiment: In vitro cytokinesis-block micronucleus assay (CBMN) with whole human blood cells; conditions: for MN formation compared to solvent-control: concentration range analysed; for result in the CBMN: overall call; for MNC in 2,000 BNC: positive control
Experimental: In vitro cytokinesis-block micronucleus assay (CBMN) with whole human blood cells (WHBC) - Heparinised WHBC samples were obtained by venipuncture from volunteers as described above. […] WHBC cultures exposed to mitomycin C (MMC) (1.0 µg/mL in water) (Bristol, USA) for 2 h or to N-deacetyl-N-methylcolchicine in water (Demecolcine: Sigma-Aldrich) 0.02 µg/mL for 28 h were used as positive control cultures. After the treatment, the WHBC cultures were centrifuged (900 rpm, 10 min) and washed with 5 mL PBS. […] CytB has cytokinesis-block activity leading to the formation of binucleate cells. […] The fixed cell suspension was dropped on a clean glass slide and the slide was air-dried on a heating plate (60 °C). Air-dried slides were stained with 60 µg/mL acridine orange in Sörensen buffer (0.03 M KH2PO4, 0.03 M Na2HPO4) for 3s, then they were embedded in distilled water and covered with a coverslip. MN showing bright green fluorescence were analysed using a fluorescence microscope at 400 X magnification. MN were scored in 2,000 binucleated cells (BNC) for culture and the number of the micronucleate cells (MNC) in 2,000 BNC was determined. Cytotoxicity was measured using the cytokinesis-block proliferation index (CBPI) and the replication index (RI) which were calculated from 500 cells. The CBPI indicates the average number of nuclei per cell, and may be used to calculate cell proliferation. The RI indicates the relative number of cell cycles per cell during the period of exposure to cytoB in treated cultures compared to control cultures and can be used to calculate the % cytostasis. CBPI was calculated according to the formula: CBPI = [(No. mononucleate cells) + (2 x No. binucleate cells) + (3 x No. multinucleate cells)] / N, where N indicates the total number of cells scored. RI (%) was calculated according to the formula:
RI %=((No. binucleate cells) + (2 x No. multinucleate cells)) ÷ (Total number of cells)T/((No. binucleate cells) + (2 x No. multinucleate cells)) ÷ (Total number of cells)C x 100
where T indicates treated cultures and C control cultures
Cytotoxicity was evidenced in the occurrence of reduction in CBPI or RI of cultures treated by test substances when compared to control cultures. The measurement of cytotoxicity was used to select the concentrations of the test substance to be analysed for the presence of MN. […] However, it was adopted in this work as the maximum concentration in CBMN one that induced a proliferation inhibition not exceeding about 50% established by ICH S2 (R1) for lymphocyte cultures.
The chi-square test for trend was performed to analyse if the increase of MNC was concentration-related.[30]

Salmonella typhimurium = conditions: cited from earlier work
[5] = 10,000 μM, relative to solvent-control

For O=C(Cn1ccnc1[N+](=O)[O-])NCc1ccccc1 [Benznidazole, benznidazole], the IC50 [1] is given as 8.8 ± 1.1 µM, the serological cure (Chagas disease; adults with late chronic infection) is given as 5-20% and the digestive intolerance (Chagas disease; adverse event) is given as 5-15%. For the same molecule, the “general symptoms such as anorexia, asthenia, headache, and sleep disturbances” value (Chagas disease; adverse event) was 40%, the skin rash (Chagas disease; adverse event) was 29-50% and the discontinuation of treatment (Chagas disease; due to adverse events) was 9-29%.

With Cn1cnc([N+](=O)[O-])c1Nc1nnc(C(F)(F)F)[nH]1 [Compound 5] the IC50 [1] was over 500 µM, the “percentage decrease in cell viability” value ([2]; 149 µM) was 0% and the “percentage decrease in cell viability” value ([2]; 238 µM) was 0%. The “percentage decrease in cell viability” value ([2]; 382 µM) was 0%, the “percentage decrease in cell viability” value ([2]; 610 µM) was 0% and the “percentage decrease in cell viability” value ([2]; 1,562 µM) was 0%. The “percentage decrease in cell viability” value ([2]; 2,500 µM) was 0%, the “percentage decrease in cell viability” value ([2]; 4,000 µM) was 2.0% and the “percentage decrease in cell viability” value ([2]; 6,400 µM) was 1.0%. The “percentage decrease in cell viability” value ([2]; 10,000 µM) was 2.0%, the lethality variation range ([2]; 149-10,000 µM) was 1-4% and the “result in the in vitro CA” value [3] was “positive”. For the same molecule, the “concentrations at which a significant (p < 0.05) genotoxic effect was observed” value ([3]; human, 2 h) was over 610 µM, the CBPI ([4]; 150 µM, 4 h) was 1.310 and the NMNC/2000 binucleated cells ([4]; 150 µM, 4 h) was 20. The “RI (%)” value ([4]; 150 µM, 4 h) was 151%, the CBPI ([4]; 640 µM, 4 h) was 1.228 and the NMNC/2000 binucleated cells ([4]; 640 µM, 4 h) was 8. For the same molecule, the “RI (%)” value ([4]; 640 µM, 4 h) was 111%, the CBPI ([4]; 1,600 µM, 4 h) was 1.192 and the NMNC/2000 binucleated cells ([4]; 1,600 µM, 4 h) was 20. The “RI (%)” value ([4]; 1,600 µM, 4 h) was 95%, the CBPI ([4]; 4,000 µM, 4 h) was 1.340 and the NMNC/2000 binucleated cells ([4]; 4,000 µM, 4 h) was 24. For the same molecule, the “RI (%)” value ([4]; 4,000 µM, 4 h) was 167%, the CBPI ([4]; 10,000 µM, 4 h) was 1.152 and the NMNC/2000 binucleated cells ([4]; 10,000 µM, 4 h) was 36. The “RI (%)” value ([4]; 10,000 µM, 4 h) was 78%, the “reduction of CBPI” value [4, 5] was 36% and the “reduction of RI” value [4, 5] was 22%. The “MN formation compared to solvent-control” value ([4]; 4 h) was “did not induce a significant increase in MN formation” and the “result in the CBMN” value [4] was “negative”.

In the case of Cn1cnc([N+](=O)[O-])c1-n1cccn1 [Compound 6], the IC50 [1] is reported as over 500 µM, the “percentage decrease in cell viability” value ([2]; 149 µM) is reported as 0% and the “percentage decrease in cell viability” value ([2]; 238 µM) is reported as 4.0%. For the same molecule, the “percentage decrease in cell viability” value ([2]; 382 µM) was 0%, the “percentage decrease in cell viability” value ([2]; 610 µM) was 0% and the “percentage decrease in cell viability” value ([2]; 1,562 µM) was 0%. The “percentage decrease in cell viability” value ([2]; 2,500 µM) was 6%, the “percentage decrease in cell viability” value ([2]; 4,000 µM) was 0% and the “percentage decrease in cell viability” value ([2]; 6,400 µM) was 0%. The lethality variation range ([2]; 149-6,400 µM) was 1-4%, the “result in the in vitro CA” value [3] was “positive” and the “concentration with significant (p < 0.05) DNA damage” value ([3]; human, 2 h) was 6,400 µM. The “cells with class 1 DNA damage” value ([3]; human, 2 h, 6400 µM) was 10.5%, the CBPI ([4]; 150 µM, 4 h) was 1.184 and the NMNC/2000 binucleated cells ([4]; 150 µM, 4 h) was 32. The “RI (%)” value ([4]; 150 µM, 4 h) was 148%, the CBPI ([4]; 640 µM, 4 h) was 1.204 and the NMNC/2000 binucleated cells ([4]; 640 µM, 4 h) was 12. The “RI (%)” value ([4]; 640 µM, 4 h) was 132%, the CBPI ([4]; 1,600 µM, 4 h) was 1.134 and the NMNC/2000 binucleated cells ([4]; 1,600 µM, 4 h) was 16. For the same molecule, the “RI (%)” value ([4]; 1,600 µM, 4 h) was 114%, the CBPI ([4]; 4,000 µM, 4 h) was 1.068 and the NMNC/2000 binucleated cells ([4]; 4,000 µM, 4 h) was 12. For the same molecule, the “RI (%)” value ([4]; 4,000 µM, 4 h) was 56%, the CBPI ([4]; 10,000 µM, 4 h) was 1.036 and the “RI (%)” value ([4]; 10,000 µM, 4 h) was 24%. For the same molecule, the “maximum concentration used in MN analysis (inducing in the maximum 50% reduction of CBPI or RI)” value ([4]; 4 h, relative to solvent-control) was 4,000 μM, the “MN formation compared to solvent-control” value ([4]; 4 h) was “did not induce a significant increase in MN formation” and the “result in the CBMN” value [4] was “negative”. The “concentration with cytotoxic activity” value (Salmonella typhimurium; TA98) was 50 µg/mL, the “concentration with mutagenicity in TA100” value (Salmonella typhimurium; TA100, absence and presence of S9 mixture, highest tested concentration) was 50 µg/mL and the “concentration range with cytotoxic activity” value (Salmonella typhimurium; TA100 and TA1535 strains) was 1.0 to 50 µg/mL.

In the case of CN[C@H]1CCc2cc(OC)c(OC)c(OC)c2-c2ccc(OC)c(=O)cc21 [Demecolcine, N-deacetyl-N-methylcolchicine, reference compound], the “MNC in 2,000 BNC” value ([4]; 0.02 μg/mL, 28 h) is reported as 37 and 42 and 30.

With CO[C@@]12[C@H](COC(N)=O)C3=C(C(=O)C(C)=C(N)C3=O)N1C[C@@H]1N[C@@H]12 [MMC, mitomycin C, reference compound] the “MNC in 2,000 BNC” value ([4]; 1.0 μg/mL, 2 h) was 38 and 56 and 40.

For COS(C)(=O)=O [MMS, Methyl methane-sulfonate, reference compound], the “cells with class 3 DNA damage” value ([3]; 160 µM) was 87.7% and the “TAU mean value (total DNA damage score)” value ([3]; 160 μM, positive control, p < 0.001 vs control) was 554.2 ± 9.9 TAU.

For CC1CS(=O)(=O)CCN1/N=C/c1ccc([N+](=O)[O-])o1 (centres unmarked) [Nfx, nifurtimox], the “discontinuation of the treatment” value (Chagas disease; adults with chronic infection) is listed as 14-75% and the “frequency of adverse effects” value (Chagas disease; adults with chronic infection) is listed as 43.0-97.5%.

Reference: publication PMC6598759, “In vitro genotoxicity of nitroimidazoles as a tool in the search of new trypanocidal agents” (Memórias do Instituto Oswaldo Cruz, 2019)
